According to ChEMBL document CHEMBL6127065, “Design and Synthesis of c-Met and HDAC Dual Inhibitors for the Treatment of Breast Cancer” (ACS Med Chem Lett, 2024):
Activity calls are given as the source filed them. The calls are words filed in the database; no cut-off is given here.

Experiments:
MDA-MB-231 [1] = assay: Induction of apoptosis in human MDA-MB-231 cells assessed as upregulation of cleaved caspase 7 level at 1 to 25 uM incubated for 48 hrs by western blot analysis; type: functional, cell-based; settings: dose 1-25 µM
MDA-MB-453 = assay: Antiproliferative activity against human MDA-MB-453 cells assessed as reduction in cell growth incubated for 72 hrs by MTT assay; settings: MDA-MB-453, 72 h
MDA-MB-231 [2] = assay: Induction of apoptosis in human MDA-MB-231 cells assessed as late apoptotic cells at 2.5 uM incubated for 48 hrs by AnnexinV-FITC/PI staining based flow cytometry (reference value: 3.77 to 3.84%); type: functional
[3] = target: T1, Hepatocyte growth factor receptor (Homo sapiens, UniProt P08581); assay: Inhibition of c-Met (unknown origin) using Poly(Glu:Tyr)(4:1) and ATP as substrate incubated for 45 mins by Kinase-Glo Max reagent based luminescence analysis
T1 sequence (P08581 whole entry): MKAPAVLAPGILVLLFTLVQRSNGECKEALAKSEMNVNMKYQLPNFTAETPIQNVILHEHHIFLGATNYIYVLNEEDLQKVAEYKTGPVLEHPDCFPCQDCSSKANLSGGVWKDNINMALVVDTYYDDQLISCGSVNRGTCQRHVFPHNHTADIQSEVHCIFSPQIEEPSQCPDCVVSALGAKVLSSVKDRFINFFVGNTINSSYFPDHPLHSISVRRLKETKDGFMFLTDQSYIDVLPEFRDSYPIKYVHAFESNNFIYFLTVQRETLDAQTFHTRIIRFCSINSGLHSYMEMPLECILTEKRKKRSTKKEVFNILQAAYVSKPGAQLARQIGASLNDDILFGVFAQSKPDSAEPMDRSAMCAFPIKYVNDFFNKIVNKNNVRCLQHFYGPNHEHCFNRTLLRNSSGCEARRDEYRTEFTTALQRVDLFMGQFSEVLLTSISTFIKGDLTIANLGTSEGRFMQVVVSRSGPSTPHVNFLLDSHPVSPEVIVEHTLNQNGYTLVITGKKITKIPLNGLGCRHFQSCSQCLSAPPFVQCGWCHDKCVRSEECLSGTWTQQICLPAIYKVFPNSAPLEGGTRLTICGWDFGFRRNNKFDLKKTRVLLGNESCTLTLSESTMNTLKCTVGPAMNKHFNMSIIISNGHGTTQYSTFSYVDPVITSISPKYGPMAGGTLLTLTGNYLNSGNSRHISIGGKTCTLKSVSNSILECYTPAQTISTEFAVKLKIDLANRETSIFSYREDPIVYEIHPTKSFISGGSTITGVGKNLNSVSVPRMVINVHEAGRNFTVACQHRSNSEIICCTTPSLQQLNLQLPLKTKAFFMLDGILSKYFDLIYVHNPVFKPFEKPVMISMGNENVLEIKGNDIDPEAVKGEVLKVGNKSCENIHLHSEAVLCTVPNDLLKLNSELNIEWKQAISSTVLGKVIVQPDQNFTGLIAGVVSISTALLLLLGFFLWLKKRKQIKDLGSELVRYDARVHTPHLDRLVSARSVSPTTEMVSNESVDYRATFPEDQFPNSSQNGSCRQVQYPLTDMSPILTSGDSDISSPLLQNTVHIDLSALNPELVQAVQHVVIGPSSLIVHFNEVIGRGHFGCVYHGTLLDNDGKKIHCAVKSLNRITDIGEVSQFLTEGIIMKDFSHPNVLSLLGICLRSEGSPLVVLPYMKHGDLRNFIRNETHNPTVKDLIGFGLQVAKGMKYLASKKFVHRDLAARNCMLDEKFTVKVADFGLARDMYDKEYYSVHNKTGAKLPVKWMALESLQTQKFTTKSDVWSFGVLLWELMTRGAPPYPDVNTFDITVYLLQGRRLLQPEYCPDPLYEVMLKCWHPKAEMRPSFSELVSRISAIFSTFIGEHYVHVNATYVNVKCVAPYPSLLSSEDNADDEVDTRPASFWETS

MDA-MB-231 [4] = assay: Inhibition of colony formation in human MDA-MB-231 cells at 1 to 25 uM incubated for 7 days by crystal violet staining based analysis; type: functional, cell-based; settings: dose 1-25 µM, time 7.0 day
[5] = target: T1, Hepatocyte growth factor receptor; assay: Inhibition of c-Met in human MDA-MB-231 cells assessed as inhibition of Akt phosphorylation at Ser473 residue incubated for 48 hrs by western blot analysis; type: cell-based; settings: dose 1-25 µM
MDA-MB-231 [6] = assay: Induction of cell cycle arrest in human MDA-MB-231 cells assessed as accumulation of cells at G2/M phase at 1 uM incubated for 48 hrs by PI staining based flow cytometry (reference value: 29.42 to 32.08%); type: functional
MDA-MB-231 [7] = assay: Induction of cell cycle arrest in human MDA-MB-231 cells assessed as accumulation of cells at G0/G1 phase at 1 uM incubated for 48 hrs by PI staining based flow cytometry (reference value: 55.36 to 55.82%); type: functional
MDA-MB-231 [8] = assay: Induction of cell cycle arrest in human MDA-MB-231 cells assessed as accumulation of cells at S phase at 25 uM incubated for 48 hrs by PI staining based flow cytometry (reference value: 12.56 to 14.76%); type: functional
[9] = target: T1, Hepatocyte growth factor receptor; assay: Inhibition of c-Met in human MDA-MB-231 cells assessed as inhibition of ERK phosphorylation incubated for 48 hrs by western blot analysis; type: cell-based; settings: dose 1-25 µM
MDA-MB-231 [10] = assay: Induction of apoptosis in human MDA-MB-231 cells assessed as upregulation of cleaved caspase 3 level at 1 to 25 uM incubated for 48 hrs by western blot analysis; type: functional, cell-based; settings: dose 1-25 µM
MDA-MB-231 [11] = assay: Induction of cell cycle arrest in human MDA-MB-231 cells assessed as accumulation of cells at G2/M phase at 10 uM incubated for 48 hrs by PI staining based flow cytometry (reference value: 29.42 to 32.08%); type: functional
MDA-MB-231 [12] = assay: Antiproliferative activity against human MDA-MB-231 cells assessed as reduction in cell growth incubated for 72 hrs by MTT assay; settings: MDA-MB-231, 72 h
[13] = target: T1, Hepatocyte growth factor receptor; assay: Inhibition of c-Met in human MDA-MB-231 cells assessed as inhibition of Akt phosphorylation at […] residue incubated for 48 hrs by western blot analysis; type: cell-based; settings: dose 1-25 µM
MDA-MB-231 [14] = assay: Induction of apoptosis in human MDA-MB-231 cells assessed as early apoptotic cells at 25 uM incubated for 48 hrs by AnnexinV-FITC/PI staining based flow cytometry (reference value: 1.6 to 2.41%); type: functional
MDA-MB-231 [15] = assay: Induction of apoptosis in human MDA-MB-231 cells assessed as early apoptotic cells at 2.5 uM incubated for 48 hrs by AnnexinV-FITC/PI staining based flow cytometry (reference value: 1.6 to 2.41%); type: functional
MDA-MB-231 [16] = assay: Induction of cell cycle arrest in human MDA-MB-231 cells assessed as accumulation of cells at S phase at 10 uM incubated for 48 hrs by PI staining based flow cytometry (reference value: 12.56 to 14.76%); type: functional
MDA-MB-231 [17] = assay: Induction of apoptosis in human MDA-MB-231 cells assessed as necrotic cells at 10 uM incubated for 48 hrs by AnnexinV-FITC/PI staining based flow cytometry (reference value: 1.79 to 2.53%); type: functional
MDA-MB-231 [18] = assay: Induction of apoptosis in human MDA-MB-231 cells assessed as late apoptotic cells at 5 uM incubated for 48 hrs by AnnexinV-FITC/PI staining based flow cytometry (reference value: 3.77 to 3.84%); type: functional
MDA-MB-231 [19] = assay: Induction of apoptosis in human MDA-MB-231 cells assessed as early apoptotic cells at 5 uM incubated for 48 hrs by AnnexinV-FITC/PI staining based flow cytometry (reference value: 1.6 to 2.41%); type: functional
MDA-MB-231 [20] = assay: Induction of apoptosis in human MDA-MB-231 cells assessed as viable cells at 5 uM incubated for 48 hrs by AnnexinV-FITC/PI staining based flow cytometry (reference value: 91.22 to 92.84%); type: functional; settings: read-out: Activity
MDA-MB-231 [21] = assay: Induction of apoptosis in human MDA-MB-231 cells assessed as early apoptotic cells at 10 uM incubated for 48 hrs by AnnexinV-FITC/PI staining based flow cytometry (reference value: 1.6 to 2.41%); type: functional
MDA-MB-468 = assay: Antiproliferative activity against human MDA-MB-468 cells assessed as reduction in cell growth incubated for 72 hrs by MTT assay; settings: MDA-MB-468, 72 h
MDA-MB-231 [22] = assay: Induction of cell cycle arrest in human MDA-MB-231 cells assessed as accumulation of cells at G0/G1 phase at 10 uM incubated for 48 hrs by PI staining based flow cytometry (reference value: 55.36 to 55.82%); type: functional
MDA-MB-231 [23] = assay: Induction of cell cycle arrest in human MDA-MB-231 cells assessed as accumulation of cells at G2/M phase at 2.5 uM incubated for 48 hrs by PI staining based flow cytometry (reference value: 29.42 to 32.08%); type: functional
MDA-MB-231 [24] = assay: Induction of cell cycle arrest in human MDA-MB-231 cells assessed as accumulation of cells at G2/M phase at 25 uM incubated for 48 hrs by PI staining based flow cytometry (reference value: 29.42 to 32.08%); type: functional
MDA-MB-231 [25] = assay: Induction of apoptosis in human MDA-MB-231 cells assessed as necrotic cells at 2.5 uM incubated for 48 hrs by AnnexinV-FITC/PI staining based flow cytometry (reference value: 1.79 to 2.53%); type: functional
MDA-MB-231 [26] = assay: Induction of cell cycle arrest in human MDA-MB-231 cells assessed as accumulation of cells at G0/G1 phase at 2.5 uM incubated for 48 hrs by PI staining based flow cytometry (reference value: 55.36 to 55.82%); type: functional
MDA-MB-231 [27] = assay: Induction of apoptosis in human MDA-MB-231 cells assessed as viable cells at 25 uM incubated for 48 hrs by AnnexinV-FITC/PI staining based flow cytometry (reference value: 91.22 to 92.84%); type: functional; settings: read-out: Activity
MDA-MB-231 [28] = assay: Induction of cell cycle arrest in human MDA-MB-231 cells assessed as accumulation of cells at S phase at 1 uM incubated for 48 hrs by PI staining based flow cytometry (reference value: 12.56 to 14.76%); type: functional
MDA-MB-231 [29] = assay: Induction of apoptosis in human MDA-MB-231 cells assessed as necrotic cells at 5 uM incubated for 48 hrs by AnnexinV-FITC/PI staining based flow cytometry (reference value: 1.79 to 2.53%); type: functional

CC(c1ccc2ncccc2c1)n1nnc2ncc(N3CCN(Cc4ccc(/C=C/C(=O)Nc5ccccc5N)cc4)CC3)nc21 (stereo unspecified)
Activity (MDA-MB-231 [1]): Active
IC50 (MDA-MB-453): 5.47 µM
Activity (MDA-MB-231 [2]): 6.97%
IC50 [3]: 28.9 nM
inhibition (MDA-MB-231 [4]): Dose-Dependent Effect
inhibition [5]: Dose-Dependent Effect
Activity (MDA-MB-231 [6]): 27.08%
Activity (MDA-MB-231 [7]): 65.34%
Activity (MDA-MB-231 [8]): 6.06%
inhibition [9]: Dose-Dependent Effect
Activity (MDA-MB-231 [10]): Active
Activity (MDA-MB-231 [11]): 16.08%
IC50 (MDA-MB-231 [12]): 3.57 µM
inhibition [13]: Dose-Dependent Effect
Activity (MDA-MB-231 [14]): 3.51%
Activity (MDA-MB-231 [15]): 4.92%
Activity (MDA-MB-231 [16]): 8.21%
Activity (MDA-MB-231 [17]): 1.67%
Activity (MDA-MB-231 [18]): 6.84%
Activity (MDA-MB-231 [19]): 3.1%
viability at 5 µM (MDA-MB-231 [20]): 85.5%
Activity (MDA-MB-231 [21]): 4.56%
IC50 (MDA-MB-468): 1250 nM
Activity (MDA-MB-231 [22]): 75.71%
Activity (MDA-MB-231 [23]): 23.33%
Activity (MDA-MB-231 [24]): 10.57%
Activity (MDA-MB-231 [25]): 3.83%
Activity (MDA-MB-231 [26]): 67.14%
viability at 25 µM (MDA-MB-231 [27]): 82.8%
Activity (MDA-MB-231 [28]): 7.57%
Activity (MDA-MB-231 [29]): 4.59%
